Reference: ChEMBL document CHEMBL3991601, “The target landscape of clinical kinase drugs” (Science, 2017)
pKd: −log10 of the molar value. Calls of active or inactive are those of the source. Rule as the data show it, for most assays here: actives have a measured Kd and inactives only a lower limit.

Columns and labels:
[1] = target: Protein kinase C alpha type (Homo sapiens, UniProt P17252)
[2] = target: T1, Signal recognition particle receptor subunit alpha (Homo sapiens, UniProt P08240)
T1 sequence (P08240 whole entry): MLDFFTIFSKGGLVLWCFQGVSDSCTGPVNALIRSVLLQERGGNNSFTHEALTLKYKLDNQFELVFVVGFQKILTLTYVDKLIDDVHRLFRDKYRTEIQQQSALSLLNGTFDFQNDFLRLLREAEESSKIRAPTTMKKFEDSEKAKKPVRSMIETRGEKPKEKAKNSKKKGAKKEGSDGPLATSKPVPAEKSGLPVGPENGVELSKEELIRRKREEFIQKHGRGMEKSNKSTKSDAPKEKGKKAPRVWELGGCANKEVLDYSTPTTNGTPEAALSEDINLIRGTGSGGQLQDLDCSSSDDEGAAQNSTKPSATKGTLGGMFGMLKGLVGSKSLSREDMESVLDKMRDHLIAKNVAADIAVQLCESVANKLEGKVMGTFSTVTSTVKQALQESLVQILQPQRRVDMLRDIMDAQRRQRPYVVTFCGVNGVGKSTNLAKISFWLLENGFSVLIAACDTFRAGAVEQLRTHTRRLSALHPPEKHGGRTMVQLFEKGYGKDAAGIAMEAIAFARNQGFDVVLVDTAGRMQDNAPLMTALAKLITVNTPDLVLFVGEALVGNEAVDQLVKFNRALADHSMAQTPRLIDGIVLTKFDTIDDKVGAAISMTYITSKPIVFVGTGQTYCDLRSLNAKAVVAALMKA

[3] = target: T2, Receptor-type tyrosine-protein kinase FLT3 (Homo sapiens, UniProt P36888)
T2 sequence (P36888 whole entry): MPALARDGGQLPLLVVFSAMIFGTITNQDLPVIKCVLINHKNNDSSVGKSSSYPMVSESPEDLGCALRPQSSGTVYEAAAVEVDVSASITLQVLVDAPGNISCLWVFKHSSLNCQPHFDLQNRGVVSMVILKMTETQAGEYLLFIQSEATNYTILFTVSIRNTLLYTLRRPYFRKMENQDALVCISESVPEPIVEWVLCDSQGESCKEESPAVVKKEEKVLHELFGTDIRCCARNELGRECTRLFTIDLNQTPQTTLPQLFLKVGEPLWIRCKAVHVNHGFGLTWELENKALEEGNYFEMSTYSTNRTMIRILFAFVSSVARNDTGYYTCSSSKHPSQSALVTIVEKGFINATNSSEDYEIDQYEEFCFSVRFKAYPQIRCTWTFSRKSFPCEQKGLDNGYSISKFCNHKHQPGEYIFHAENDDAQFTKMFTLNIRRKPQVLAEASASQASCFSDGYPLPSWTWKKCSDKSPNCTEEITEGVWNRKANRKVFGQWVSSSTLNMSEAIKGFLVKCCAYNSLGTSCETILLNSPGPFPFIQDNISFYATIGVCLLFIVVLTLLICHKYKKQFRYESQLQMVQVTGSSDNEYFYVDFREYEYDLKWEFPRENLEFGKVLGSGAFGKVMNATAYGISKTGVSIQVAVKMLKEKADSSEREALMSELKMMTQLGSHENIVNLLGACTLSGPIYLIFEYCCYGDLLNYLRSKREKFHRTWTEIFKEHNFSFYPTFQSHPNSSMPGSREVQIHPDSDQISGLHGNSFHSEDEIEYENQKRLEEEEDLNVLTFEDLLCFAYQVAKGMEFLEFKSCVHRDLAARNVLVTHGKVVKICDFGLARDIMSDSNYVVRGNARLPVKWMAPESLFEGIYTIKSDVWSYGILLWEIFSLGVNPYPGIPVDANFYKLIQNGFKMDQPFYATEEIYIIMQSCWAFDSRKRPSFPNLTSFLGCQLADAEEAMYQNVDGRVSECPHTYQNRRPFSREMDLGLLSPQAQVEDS

[4] = target: Mitogen-activated protein kinase 7 (Homo sapiens, UniProt Q13164)
[5] = target: T3, MAP/microtubule affinity-regulating kinase 4 (Homo sapiens, UniProt Q96L34)
T3 sequence (Q96L34 whole entry): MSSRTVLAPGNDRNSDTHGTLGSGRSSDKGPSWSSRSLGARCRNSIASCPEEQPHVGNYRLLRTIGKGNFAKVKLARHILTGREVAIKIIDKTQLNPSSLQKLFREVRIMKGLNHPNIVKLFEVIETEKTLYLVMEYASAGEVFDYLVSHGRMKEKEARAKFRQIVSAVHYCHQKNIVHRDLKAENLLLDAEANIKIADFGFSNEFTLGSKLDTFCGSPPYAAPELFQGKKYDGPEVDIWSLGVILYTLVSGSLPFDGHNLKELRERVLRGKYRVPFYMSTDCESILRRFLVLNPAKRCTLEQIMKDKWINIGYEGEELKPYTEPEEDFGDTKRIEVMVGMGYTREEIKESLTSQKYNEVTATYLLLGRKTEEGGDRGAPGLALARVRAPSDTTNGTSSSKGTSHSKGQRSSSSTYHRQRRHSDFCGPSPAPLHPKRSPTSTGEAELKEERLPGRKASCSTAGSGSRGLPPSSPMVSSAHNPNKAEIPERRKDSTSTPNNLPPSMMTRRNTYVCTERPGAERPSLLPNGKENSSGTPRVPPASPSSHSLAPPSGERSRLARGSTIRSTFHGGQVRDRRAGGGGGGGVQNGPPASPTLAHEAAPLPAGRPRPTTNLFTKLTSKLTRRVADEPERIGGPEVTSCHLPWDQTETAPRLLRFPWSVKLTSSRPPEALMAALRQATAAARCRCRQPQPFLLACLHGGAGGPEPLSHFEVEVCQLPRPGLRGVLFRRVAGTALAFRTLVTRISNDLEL

[6] = target: Ribosomal protein S6 kinase alpha-4 (Homo sapiens, UniProt O75676)
[7] = target: T4, MAP kinase-activated protein kinase 5 (Homo sapiens, UniProt Q8IW41)
T4 sequence (Q8IW41 whole entry): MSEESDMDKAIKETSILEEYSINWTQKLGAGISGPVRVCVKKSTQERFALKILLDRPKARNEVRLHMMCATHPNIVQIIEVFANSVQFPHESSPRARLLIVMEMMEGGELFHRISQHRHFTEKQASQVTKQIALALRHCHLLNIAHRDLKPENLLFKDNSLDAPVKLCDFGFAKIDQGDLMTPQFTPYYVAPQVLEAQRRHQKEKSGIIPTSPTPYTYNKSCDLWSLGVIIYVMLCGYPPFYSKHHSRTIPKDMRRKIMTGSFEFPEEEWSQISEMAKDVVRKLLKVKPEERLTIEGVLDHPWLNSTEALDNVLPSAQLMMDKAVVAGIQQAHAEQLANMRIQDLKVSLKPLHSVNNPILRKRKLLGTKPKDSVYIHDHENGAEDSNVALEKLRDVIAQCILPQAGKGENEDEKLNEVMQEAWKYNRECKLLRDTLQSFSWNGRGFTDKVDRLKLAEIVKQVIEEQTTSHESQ
Also: in the data inactive means no Kd found up to 30 µM.

Chain of Mitogen-activated protein kinase 7 (Q13164 whole entry): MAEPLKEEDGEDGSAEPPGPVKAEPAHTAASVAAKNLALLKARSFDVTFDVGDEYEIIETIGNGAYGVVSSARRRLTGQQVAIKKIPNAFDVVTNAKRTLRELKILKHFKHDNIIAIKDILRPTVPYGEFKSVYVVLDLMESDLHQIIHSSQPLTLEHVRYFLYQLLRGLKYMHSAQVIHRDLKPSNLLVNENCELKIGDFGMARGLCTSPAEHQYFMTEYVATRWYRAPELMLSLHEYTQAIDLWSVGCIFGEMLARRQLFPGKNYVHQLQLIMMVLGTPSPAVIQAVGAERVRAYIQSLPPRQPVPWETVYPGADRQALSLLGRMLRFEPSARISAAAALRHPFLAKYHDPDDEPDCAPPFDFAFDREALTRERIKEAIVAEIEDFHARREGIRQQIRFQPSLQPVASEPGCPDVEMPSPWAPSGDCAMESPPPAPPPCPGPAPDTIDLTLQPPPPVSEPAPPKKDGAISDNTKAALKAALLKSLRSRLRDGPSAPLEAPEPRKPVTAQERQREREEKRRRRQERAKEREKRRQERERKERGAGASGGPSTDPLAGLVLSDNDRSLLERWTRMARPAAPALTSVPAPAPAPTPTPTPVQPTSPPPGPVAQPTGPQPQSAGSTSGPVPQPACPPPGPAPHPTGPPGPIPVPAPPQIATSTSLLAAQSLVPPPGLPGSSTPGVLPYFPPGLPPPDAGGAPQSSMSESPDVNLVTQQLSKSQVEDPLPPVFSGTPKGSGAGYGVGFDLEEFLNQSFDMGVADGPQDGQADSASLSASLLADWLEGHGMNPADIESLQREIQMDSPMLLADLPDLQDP
Chain of Ribosomal protein S6 kinase alpha-4 (O75676 whole entry): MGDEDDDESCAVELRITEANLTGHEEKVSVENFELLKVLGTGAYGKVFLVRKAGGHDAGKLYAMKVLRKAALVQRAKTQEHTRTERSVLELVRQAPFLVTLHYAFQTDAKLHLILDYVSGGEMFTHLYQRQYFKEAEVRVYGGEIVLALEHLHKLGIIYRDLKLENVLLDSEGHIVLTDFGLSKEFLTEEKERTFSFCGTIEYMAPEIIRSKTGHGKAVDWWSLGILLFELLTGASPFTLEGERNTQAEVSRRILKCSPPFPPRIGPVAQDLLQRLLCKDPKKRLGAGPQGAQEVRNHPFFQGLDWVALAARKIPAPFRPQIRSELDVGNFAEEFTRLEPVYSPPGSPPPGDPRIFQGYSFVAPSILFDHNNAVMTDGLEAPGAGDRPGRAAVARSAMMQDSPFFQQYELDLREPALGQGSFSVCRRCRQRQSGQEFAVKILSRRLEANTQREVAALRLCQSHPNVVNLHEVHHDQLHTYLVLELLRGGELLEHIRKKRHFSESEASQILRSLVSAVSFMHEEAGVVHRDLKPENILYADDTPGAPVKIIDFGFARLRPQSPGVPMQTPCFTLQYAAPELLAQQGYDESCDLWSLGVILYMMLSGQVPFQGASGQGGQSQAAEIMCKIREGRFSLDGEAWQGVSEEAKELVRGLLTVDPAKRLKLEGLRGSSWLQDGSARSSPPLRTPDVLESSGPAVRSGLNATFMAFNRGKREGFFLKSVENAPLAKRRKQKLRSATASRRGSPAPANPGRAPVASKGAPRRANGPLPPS

| SMILES | Kd [1] | Kd [2] | Kd [3] | Kd [4] | Kd [5] | Kd [6] | Kd [7] | pKd [2] |
| --- | --- | --- | --- | --- | --- | --- | --- | --- |
| Cc1cn(-c2cc(NC(=O)c3ccc(C)c(Nc4nccc(-c5cccnc5)n4)c3)cc(C(F)(F)F)c2)cn1 [NILOTINIB] | > 30 µM (inactive) | > 30 µM (inactive) | – | – | – | – | – | – |
| CO[C@H]1C[C@@H]2CC[C@@H](C)[C@@](O)(O2)C(=O)C(=O)N2CCCC[C@H]2C(=O)O[C@H]([C@H](C)C[C@@H]2CC[C@@H](OCCO)[C@H](OC)C2)CC(=O)[C@H](C)/C=C(\C)[C@@H](O)[C@@H](OC)C(=O)[C@H](C)C[C@H](C)/C=C/C=C/C=C/1C [EVEROLIMUS] | > 30 µM (inactive) | > 30 µM (inactive) | > 30 µM (inactive) | > 30 µM (inactive) | > 30 µM (inactive) | > 30 µM (inactive) | – | – |
| OCCn1cc(-c2cnc3nnn(Cc4ccc5ncccc5c4)c3n2)cn1 [PF-04217903] | > 30 µM (inactive) | – | – | > 30 µM (inactive) | > 30 µM (inactive) | > 30 µM (inactive) | > 30 µM (inactive) | – |
| O=C(Nc1cccc(Cl)c1)Nc1ncc(CCNc2ncnc3ccsc23)s1 [SNS-314] | > 30 µM (inactive) | – | – | – | > 30 µM (inactive) | > 30 µM (inactive) | – | – |
| C1=C/COCc2cc(ccc2OCCN2CCCC2)Nc2nccc(n2)-c2cccc(c2)COC/1 [PACRITINIB] | 0.934 µM (active) | > 30 µM (inactive) | – | – | > 30 µM (inactive) | > 30 µM (inactive) | > 30 µM (inactive) | – |
| CN1CCN(c2ccc3nc(-c4c(N)c5c(F)cccc5[nH]c4=O)[nH]c3c2)CC1 [DOVITINIB] | > 30 µM (inactive) | – | – | – | – | – | – | – |
| CNC(=O)c1cc(Oc2ccc(NC(=O)Nc3ccc(Cl)c(C(F)(F)F)c3)c(F)c2)ccn1 [REGORAFENIB] | > 30 µM (inactive) | > 30 µM (inactive) | – | > 30 µM (inactive) | > 30 µM (inactive) | > 30 µM (inactive) | > 30 µM (inactive) | – |
| Nc1nc(N)c2nc(-c3cccc(O)c3)c(-c3cccc(O)c3)nc2n1 [TG100-115] | > 30 µM (inactive) | > 30 µM (inactive) | – | – | – | – | – | – |
| COc1cc2nccc(Oc3ccc(NC(=O)Nc4cc(C)on4)c(Cl)c3)c2cc1OC [TIVOZANIB] | > 30 µM (inactive) | > 30 µM (inactive) | – | > 30 µM (inactive) | > 30 µM (inactive) | > 30 µM (inactive) | – | – |
| COCCNCc1ccc(-c2cc3nccc(Oc4ccc(NC(=S)NC(=O)Cc5ccc(F)cc5)cc4F)c3s2)nc1 [GLESATINIB] | > 30 µM (inactive) | > 30 µM (inactive) | 0.179 µM (active) | > 30 µM (inactive) | > 30 µM (inactive) | > 30 µM (inactive) | – | – |
| COC(=O)[C@@]1(O)C[C@H]2O[C@]1(C)n1c3ccccc3c3c4c(c5c6ccccc6n2c5c31)C(=O)NC4 [K-252A] | – | – | 0.227 µM (active) | > 30 µM (inactive) | 0.028 µM (active) | 0.432 µM (active) | > 30 µM (inactive) | – |
| CN(C)C(=O)c1cc2cnc(Nc3ccc(N4CCNCC4)cn3)nc2n1C1CCCC1 [RIBOCICLIB] | > 30 µM (inactive) | > 30 µM (inactive) | > 30 µM (inactive) | > 30 µM (inactive) | > 30 µM (inactive) | > 30 µM (inactive) | – | – |
| Cc1cc2c(F)c(Oc3ncnn4cc(OC[C@@H](C)OC(=O)[C@H](C)N)c(C)c34)ccc2[nH]1 [BRIVANIB ALANINATE] | > 30 µM (inactive) | > 30 µM (inactive) | > 30 µM (inactive) | > 30 µM (inactive) | > 30 µM (inactive) | > 30 µM (inactive) | – | – |

Continued, values first:

| Kd [1] | Kd [2] | Kd [3] | Kd [4] | Kd [5] | Kd [6] | Kd [7] | pKd [2] | SMILES |
| --- | --- | --- | --- | --- | --- | --- | --- | --- |
| > 30 µM (inactive) | > 30 µM (inactive) | – | > 30 µM (inactive) | > 30 µM (inactive) | – | – | – | Cc1nc(N)sc1-c1ccnc(Nc2ccc(N3CCOCC3)cc2)n1 [CYC-116] |
| > 30 µM (inactive) | – | – | > 30 µM (inactive) | > 30 µM (inactive) | > 30 µM (inactive) | – | 8.10 | Cc1cc(Nc2cc(N3CCN(C)CC3)nc(/C=C/c3ccccc3)n2)n[nH]1 [ENMD-2076] |
| 0.566 µM (active) | > 30 µM (inactive) | – | – | – | – | – | – | CCn1c(-c2nonc2N)nc2c(C#CC(C)(C)O)ncc(OC[C@H]3CCCNC3)c21 [GSK-690693] |
